Columns and labels:
Format in all cases: biochemical
[1] = biological target: T1, CtHtrA (Chlamydia trachomatis serovar D, UniProt P18584); test: Activation of CtHtrA cleavage of Bcas1 substrate by added activator; details: substrate Bcas1 (MCA-ENLHLPLPIIF-DNP), fluorimetric, 37°C
T1 construct: His-tag; made in house; host or cells: E. coli BL21 (DE3), plasmid pETHtrA
T1 sequence (P18584 17-497): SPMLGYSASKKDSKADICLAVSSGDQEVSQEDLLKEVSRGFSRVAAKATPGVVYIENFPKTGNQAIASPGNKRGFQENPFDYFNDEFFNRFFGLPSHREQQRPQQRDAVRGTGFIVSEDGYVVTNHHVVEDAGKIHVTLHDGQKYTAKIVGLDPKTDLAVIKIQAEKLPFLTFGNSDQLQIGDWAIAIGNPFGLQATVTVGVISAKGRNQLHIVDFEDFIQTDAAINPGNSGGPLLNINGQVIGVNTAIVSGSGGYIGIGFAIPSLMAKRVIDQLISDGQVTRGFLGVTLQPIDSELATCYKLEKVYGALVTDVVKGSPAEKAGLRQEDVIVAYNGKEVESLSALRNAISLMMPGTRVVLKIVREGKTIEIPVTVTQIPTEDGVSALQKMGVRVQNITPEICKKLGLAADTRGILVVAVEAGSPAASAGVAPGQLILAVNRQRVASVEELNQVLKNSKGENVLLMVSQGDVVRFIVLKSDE
Procedure: (§1) To determine if the addition of a second peptide to the protease assays could activate or increase CtHtrA proteolysis, two activator peptides were tested in the CtHtrA cleavage of the model ß-casein peptide substrate Bcas1. The first was based on the ß-casein C-terminal sequence (Act1: NH2-VLGPVRGPFPIIV-OH) and the second on insulin b chain C-terminal sequence (Act2: NH2-CGELGFFYTP-OH).
Finally, in order to determine if the 24-mer (highest amount with MOMP protein, or Act1), or 12-mer, or both, corresponds to enhanced protease activity, the incubations of CtHtrA and these potential in vivo activators were used for protease assays with the Bcas1 substrate (Fig. 6). […] The presence of the majority of CtHtrA as higher order oligomers correlated with an increased rate of proteolysis for CtHtrA, particularly when these oligomers were predominately 24-mers.
The purified recombinant protein was examined by Coomassie stained polyacrylamide gels and activity was checked using ß-casein cleavage assays prior to use in peptide assays. Briefly, this involved incubating 2 µg of the protease with 10 µg of ß-casein in 50 mM Tris pH 7.0, 20 mM MgCl2 for 2 h prior to examining the assays by SDS PAGE (ß-casein and protease only controls were always conducted). Protease assays using peptides were conducted using custom synthesised peptides (Mimotopes). […] Protease assays using pNA labelled peptides were conducted using the xMARK Microplate spectrophotometer (Bio-Rad) at 405 nm, incubated at 37°C, with a reading taken every 10 s for 30 min. The maximum slope over a minimum of 8 readings was used for the data analysis. […] The assays were excited at 340 nm and emission was detected at 405 nm with a gain of 1000, the assays were monitored every 20 s or at the minimum cycle time for up to 40 min. […] The assay results shown for the fluorescent compounds have been normalised for the amount of fluorescent emission detected using a standard curve of known concentrations of the MCA fluorophore under the identical assay conditions. […]

[2] = biological target: T1, CtHtrA; test: Activation of CtHtrA cleavage of pNA peptides by added activator peptide; details: data not shown
Procedure: as §1
One explanation for the observation of a lack of activation for some substrates could be that these substrates act as both activators and substrates by binding to both the active and allosteric sites of CtHtrA. In particular, the pNA peptides were not activated, which could imply that the pNA moiety itself may bind at the activation site. […]
(§2) The purified recombinant protein was examined by Coomassie stained polyacrylamide gels and activity was checked using ß-casein cleavage assays prior to use in peptide assays. […] Protease assays using pNA labelled peptides were conducted using the xMARK Microplate spectrophotometer (Bio-Rad) at 405 nm, incubated at 37°C, with a reading taken every 10 s for 30 min. The maximum slope over a minimum of 8 readings was used for the data analysis. […] The assays were excited at 340 nm and emission was detected at 405 nm with a gain of 1000, the assays were monitored every 20 s or at the minimum cycle time for up to 40 min. […]

[3] = biological target: T1, CtHtrA; test: Protease assay with MCA/DNP-labelled fluorimetric peptides (REPLi library); details: peptide based on the optimal activity for human HtrA2; data not shown
Source text: To further refine the CtHtrA substrate specificity, the REPLi peptide library (Mimotopes, Melbourne) was screened. The REPLi library peptides consist of a randomised tripeptide sequence flanked on either side by two GGG tripeptide sequences. The N-terminus of each peptide was labelled with a 7-methoxycoumarin (MCA) fluorophore, and the C-terminus was labelled with a 2,4-dinitrophenyl (DNP) fluorescent quencher. The peptides were pooled according to structural similarity and selected wells with high activity were then rescreened as individual peptides to identify the peptides cut by CtHtrA (Fig. S2, all wells where CtHtrA activity was observed). […] Cleavage at the glycine or terminal fluorophore or quenchers was never detected for any peptide. […]
as §2

With QNIPF the “effect of activator on rate of CtHtrA proteolysis of Bcas1” value [1] was “did not activate CtHtrA cleavage of Bcas1” and the “effect of activator peptide on CtHtrA cleavage of pNA peptides” value [2] was “did activate the cleavage of some of the pNA peptides tested”.
In the case of MCA-IRRVSYSF-DNP, the “viability as substrate for CtHtrA” value [3] is reported as “not a viable substrate”.
